Test results as given in ChEMBL document CHEMBL5380850, “Discovery of the First Raptor (Regulatory-Associated Protein of mTOR) Inhibitor as a New Type of Antiadipogenic Agent” (J Med Chem, 2023).
The source made the active and inactive calls. The calls are words filed in the database; no cut-off is given here.

Legend:
[1] = system: 3T3-L1; assay: Anti-adipogenic activity in SiRNA mediated Raptor knockdown mouse 3T3-L1 cells assessed as PPARgamma expression level at 10 uM by Western blot analysis; format: functional, cell-based
[2] = system: Mus musculus; assay: Anti-obesity activity in high fat diet-induced obese C57BL/6J mouse model assessed as reduction in free fatty acid level at 40 mg/kg, ip administered every two days for 46 days; format: functional, organism-based; conditions: time 46.0 day
[3] = system: Mus musculus; assay: Anti-obesity activity in high fat diet-induced obese C57BL/6J mouse model assessed as increase in COX4 expression level in inguen white adipose tissue at 40 mg/kg, ip administered every two days for 46 days by immunohistochemical analysis; format: functional, organism-based; conditions: time 46.0 day
[4] = system: 3T3-L1; assay: Anti-adipogenic activity against mouse 3T3-L1 cells assessed as downregulation of ACC mRNA expression level at 0.1 to 1 uM incubated for 6 days by RT-qPCR analysis; format: functional, cell-based; conditions: dose 0.1-1 µM, time 6.0 day
[5] = molecular target: Serine/threonine-protein kinase mTOR (Mus musculus) (UniProt Q9JLN9); assay: Inhibition of mTOR signalling in mouse 3T3-L1 cells assessed as mTOR phosphorylation at S2481 residue at 0.1 to 10 uM incubated for 24 hrs by Western blot analysis; format: cell-based; conditions: dose 0.1-10 µM
[6] = system: Mus musculus; assay: Anti-obesity activity in high fat diet-induced obese C57BL/6J mouse model assessed as increase in PGC-1alpha expression level in liver at 40 mg/kg, ip administered every two days for 46 days by immunohistochemical analysis; format: functional, organism-based; conditions: time 46.0 day
[7] = system: 3T3-L1; assay: Anti-adipogenic activity in siRNA-mediated LC3B knockdown mouse 3T3-L1 cells assessed as decrease in triglyceride level at 10 uM by Oil Red O staining based spectroscopic analysis; format: functional, cell-based
[8] = molecular target: mTORC1 (Mus musculus) (UniProt Q9JLN9); assay: Inhibition of mTORC1 formation in mouse 3T3-L1 cells assessed as Raptor expression level at 10 uM incubated for 24 hrs by reciprocal co-immunoprecipitation assay; format: cell-based
[9] = molecular target: Regulatory-associated protein of mTOR (Mus musculus) (UniProt Q8K4Q0); assay: Binding affinity to Raptor in mouse 3T3-L1 cells assessed thermal stabilization at 10 uM incubated 30 mins by […] analysis
[10] = Selectivity index, ratio of IC50 for cytotoxicity against mouse 3T3-L1 cells to EC50 for anti-adipogenic activity against mouse 3T3-L1 cells; format: cell-based; conditions: read-out: Ratio IC50/EC50
[11] = system: 3T3-L1; assay: Anti-adipogenic activity in SiRNA mediated Raptor knockdown mouse 3T3-L1 cells assessed as C/EBPalpha expression level at 10 uM by Western blot analysis; format: functional, cell-based
[12] = system: 3T3-L1; assay: Anti-adipogenic activity against mouse 3T3-L1 cells at terminal differentiation stage assessed as decrease in triglyceride level at 1 uM and measured on 6 to 9 days by Oil Red O staining based spectroscopic analysis; format: functional, cell-based; conditions: time 6-9 day
[13] = system: 3T3-L1; assay: Anti-adipogenic activity against mouse 3T3-L1 cells assessed as downregulation of C/EBPbeta mRNA expression level at 0.1 to 1 uM incubated for 24 hrs by RT-qPCR analysis; format: functional, cell-based; conditions: dose 0.1-1 µM
[14] = system: Mus musculus; assay: Anti-obesity activity in high fat diet-induced obese C57BL/6J mouse assessed as decrease in body weight at 40 mg/kg, ip administered every two days for 46 days (Rvb=52.5%); format: functional; set-up: scale not given: the % may be the effect or the level left; conditions: time 46 day
[15] = molecular target: mTORC1 (Mus musculus) (UniProt Q9JLN9); assay: Inhibition of mTORC1 formation in mouse 3T3-L1 cells assessed as decrease in Raptor/mTOR interaction at 10 uM incubated for 24 hrs by reciprocal co-immunoprecipitation assay; format: cell-based
[16] = system: Mus musculus; assay: Anti-obesity activity in high fat diet-induced obese C57BL/6J mouse model assessed as reduction in plasma glucose level at 40 mg/kg, ip administered every two days for 14 days; format: functional, organism-based; conditions: time 14.0 day
[17] = system: Mus musculus; assay: Anti-obesity activity in high fat diet-induced obese C57BL/6J mouse model assessed as increase in COX4 expression level in brown adipocyte at 40 mg/kg, ip administered every two days for 46 days by immunohistochemical analysis; format: functional, organism-based; conditions: time 46.0 day
[18] = molecular target: Serine/threonine-protein kinase mTOR (Mus musculus) (UniProt Q9JLN9); assay: Inhibition of mTOR signalling in mouse 3T3-L1 cells assessed as upregulation of LC3II expression level at 0.1 to 10 uM incubated for 24 hrs by Western blot analysis; format: cell-based; conditions: dose 0.1-10 µM
[19] = system: Mus musculus; assay: Anti-obesity activity in high fat diet-induced obese C57BL/6J mouse model assessed as reduction in hepatic triglyceride level at 40 mg/kg, ip administered every two days for 46 days; format: functional, organism-based; conditions: time 46.0 day
[20] = system: Mus musculus; assay: Anti-obesity activity in high fat diet-induced obese C57BL/6J mouse assessed as reduction in visceral fat content by measuring perirenal white adipose tissue weight at 40 mg/kg, ip administered every two days for 46 days; format: functional, organism-based; conditions: time 46.0 day
[21] = system: 3T3-L1; assay: Anti-adipogenic activity in SiRNA mediated Raptor knockdown mouse 3T3-L1 cells assessed as FAS expression level at 10 uM by Western blot analysis; format: functional, cell-based
[22] = molecular target: mTORC1 (Mus musculus) (UniProt Q9JLN9); assay: Inhibition of mTORC1 formation in siRNA mediated Raptor knockdown mouse 3T3-L1 cells assessed as decrease in 4E-BP1 expression level at 10 uM incubated for 24 hrs by Western blot analysis; format: cell-based
[23] = system: 3T3-L1; assay: Anti-adipogenic activity against mouse 3T3-L1 cells assessed as downregulation of C/EBPdelta mRNA expression level at 0.1 to 1 uM incubated for 24 hrs by RT-qPCR analysis; format: functional, cell-based; conditions: dose 0.1-1 µM
[24] = molecular target: mTORC1 (Mus musculus) (UniProt Q9JLN9); assay: Inhibition of mTORC1 formation in mouse 3T3-L1 cells assessed as decrease in Raptor/mLST8 interaction at 10 uM incubated for 24 hrs by reciprocal co-immunoprecipitation assay; format: cell-based
[25] = system: Mus musculus; assay: Anti-obesity activity in high fat diet-induced obese C57BL/6J mouse model assessed as change in daily food uptake at 40 mg/kg, ip administered every two days for 46 days; format: functional, organism-based; conditions: time 46.0 day
[26] = system: Mus musculus; assay: Anti-obesity activity in high fat diet-induced obese C57BL/6J mouse model assessed as decrease in brown adipocyte size at 40 mg/kg, ip administered every two days for 46 days by Hand E staining based microscopic analysis; format: functional, organism-based; conditions: time 46.0 day
[27] = system: Mus musculus; assay: In vivo inhibition of mTOR signalling in high fat diet-induced obese C57BL/6J mouse model assessed as decrease in mTOR phosphorylation at S2481 in liver at 40 mg/kg, ip administered every two days for 46 days by Western blot analysis; format: functional, organism-based; conditions: time 46.0 day
[28] = system: 3T3-L1; assay: Anti-adipogenic activity in SiRNA mediated Raptor knockdown mouse 3T3-L1 cells assessed as decrease in triglyceride level at 10 uM by Oil Red O staining based microscopic analysis; format: functional, cell-based
[29] = system: 3T3-L1; assay: Anti-adipogenic activity in mouse 3T3-L1 cells assessed as increase in co-localization of lipid droplets and autophagolysosomes at 10 uM by Bodipy and LysoTracker staining based immunofluorescence analysis; format: functional, cell-based
[30] = system: 3T3-L1; assay: Anti-adipogenic activity against mouse 3T3-L1 cells assessed as downregulation of C/EBPalpha protein expression level at 0.1 to 1 uM incubated for 24 hrs by Western blot analysis; format: functional, cell-based; conditions: dose 0.1-1 µM
[31] = system: 3T3-L1; assay: Anti-adipogenic activity against mouse 3T3-L1 cells assessed as decrease in triglyceride level at 1 uM by Oil Red O staining based spectroscopic analysis; format: functional; set-up: scale not given: the % may be the effect or the level left
[32] = system: Mus musculus; assay: Anti-obesity activity in high fat diet-induced obese C57BL/6J mouse model assessed as reduction in plasma insulin level at 40 mg/kg, ip administered every two days for 46 days; format: functional, organism-based; conditions: time 46.0 day

Sequence of Regulatory-associated protein of mTOR (Mus musculus) (Q8K4Q0 whole entry, looked up): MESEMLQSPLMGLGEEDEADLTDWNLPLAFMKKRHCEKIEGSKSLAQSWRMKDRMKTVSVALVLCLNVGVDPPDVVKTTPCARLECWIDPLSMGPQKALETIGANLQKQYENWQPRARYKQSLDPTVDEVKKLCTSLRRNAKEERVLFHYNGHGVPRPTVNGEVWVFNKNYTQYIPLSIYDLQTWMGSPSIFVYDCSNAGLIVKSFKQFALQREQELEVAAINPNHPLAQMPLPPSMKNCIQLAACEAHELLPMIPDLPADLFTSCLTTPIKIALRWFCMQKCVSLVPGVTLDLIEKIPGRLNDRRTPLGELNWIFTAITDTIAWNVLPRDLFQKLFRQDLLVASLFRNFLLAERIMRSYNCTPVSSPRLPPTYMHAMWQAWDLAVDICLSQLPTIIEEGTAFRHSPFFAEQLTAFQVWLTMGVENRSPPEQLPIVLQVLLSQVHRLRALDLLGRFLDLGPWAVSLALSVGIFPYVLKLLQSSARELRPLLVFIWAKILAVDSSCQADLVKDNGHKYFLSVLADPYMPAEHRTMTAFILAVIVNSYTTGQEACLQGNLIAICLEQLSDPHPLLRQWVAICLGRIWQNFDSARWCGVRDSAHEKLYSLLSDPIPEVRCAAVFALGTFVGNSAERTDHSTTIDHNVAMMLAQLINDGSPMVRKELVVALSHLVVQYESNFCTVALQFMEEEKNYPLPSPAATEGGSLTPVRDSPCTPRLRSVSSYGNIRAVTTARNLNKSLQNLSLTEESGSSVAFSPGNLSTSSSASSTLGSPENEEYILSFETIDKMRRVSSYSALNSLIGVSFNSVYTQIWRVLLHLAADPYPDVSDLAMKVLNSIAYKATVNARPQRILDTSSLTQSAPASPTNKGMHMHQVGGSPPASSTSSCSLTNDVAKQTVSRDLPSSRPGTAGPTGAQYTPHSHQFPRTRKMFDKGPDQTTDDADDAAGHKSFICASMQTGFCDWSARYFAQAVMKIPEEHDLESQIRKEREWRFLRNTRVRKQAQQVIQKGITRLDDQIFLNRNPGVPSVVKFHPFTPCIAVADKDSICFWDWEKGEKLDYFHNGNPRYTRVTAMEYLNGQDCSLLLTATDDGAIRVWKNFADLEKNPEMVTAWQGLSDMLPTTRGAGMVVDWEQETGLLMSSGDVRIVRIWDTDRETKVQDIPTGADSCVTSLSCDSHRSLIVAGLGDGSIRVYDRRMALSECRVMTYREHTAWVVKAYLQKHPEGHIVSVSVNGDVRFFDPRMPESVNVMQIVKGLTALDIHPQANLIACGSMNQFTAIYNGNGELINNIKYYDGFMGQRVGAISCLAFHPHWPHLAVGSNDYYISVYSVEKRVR

For `C=C(C)[C@@]12OC3(c4ccccc4)O[C@@H]1[C@@H]1[C@H](O)[C@](Cl)(COC(=O)c4ccccc4)[C@@H](O)[C@]4(O)C(=O)C(C)=C[C@H]4[C@@]1(O3)[C@H](C)[C@H]2OC(C)=O`, the Activity [1] was “Active”, the Activity [2] was “Active” and the Activity [3] was “Active”. For the same compound, the Activity [4] was “Active”, the inhibition [5] was “Active” and the Activity [6] was “Active”. The Activity [7] was “Active”, the inhibition [8] was “Active” and the Activity [9] was “Active”. The selectivity ratio [10] was over 1030, the Activity [11] was “Active” and the Activity [12] was “Active”. The Activity [13] was “Active”, the Activity [14] was 26.8% and the inhibition [15] was “inactive”. The Activity [16] was “Active”, the Activity [17] was “Active” and the inhibition [18] was “Active”. The Activity [19] was “Active”, the Activity [20] was “Active” and the Activity [21] was “Active”. For the same compound, the inhibition [22] was “Active”, the Activity [23] was “Active” and the inhibition [24] was “inactive”. The Activity [25] was “inactive”, the Activity [26] was “Active” and the inhibition [27] was “Active”. The Activity [28] was “Active”, the Activity [29] was “inactive” and the Activity [30] was “Active”. The Activity [31] was over 50% and the Activity [32] was “Active”.
